Data: patent US20250179103A1, “6-OXODECAHYDROPYRROLO[1,2-A][1,5]DIAZOCINE AND 6-OXODECAHYDRO-4H-PYRROLO[2,1-D][1,5]THIAZOCINE DERIVATIVES AS STAT3 AND STAT6 MODULATORS FOR THE TREATMENT OF CANCER AND INFLAMMATORY CONDITIONS” (Recludix Pharma, Inc., priority 2022, published 2025)

These compounds were tested on pY641-STAT6 in Peripheral Blood Mononuclear Cells (PBMC) (assay: MSD-pSTAT-PBMC Assay (pSTAT6, IL-4 stimulated)). Details: Homo sapiens, compound 3 hrs, then 1 ng/mL IL-4 for 10 min.
Type: cell-based, Human
Description: Cryopreserved Peripheral Blood Mononuclear Cells (PBMC) are from AllCells. Recombinant Human IL-4 and IL-6 are from Peprotech. Mouse monoclonal anti-STAT3 antibody, rabbit monoclonal anti-pY705-STAT3 antibody, rabbit monoclonal Anti-pY641-STAT6 antibody, and lysis buffer are from Cell Signaling Technology (CST). Mouse monoclonal anti-STAT6 antibody is from BioLegend. Assay plates, blocker, and anti-rabbit secondary antibody are from Meso Scale Discovery (MSD).
Cryopreserved PBMCs were thawed out and allowed to recover overnight in IMDM+10% heat-inactivated FBS prior to plating 50,000 (STAT3) or 25,000 (STAT6) cells per well in 96-well U-bottom tissue culture plates. Cells were treated with compound for 3 hrs, then stimulated with 10 ng/mL IL-6 (STAT3) or 1 ng/mL IL-4 (STAT6) for 10 min. Cells were then spun down and washed with ice-cold PBS prior to lysing the cell pellet with 1× lysis buffer (CST) with 1×HALT protease and phosphatase inhibitor cocktail (Thermo). Lysates were transferred to and incubated overnight at 4° C. with shaking in QuickPlex 96-well high bind assay plates (MSD) pre-coated overnight with 30 μL per well of 0.6 μg/mL mouse monoclonal anti-STAT3 antibody (STAT3) or 2 μg/mL mouse monoclonal anti-STAT6 antibody (STAT6) in 1×PBS, and pre-blocked for 1 hour with 3% Blocker-A (MSD). Captured protein in the assay plates were then washed and probed with 25 μL per well of 0.25 μg/ml rabbit monoclonal anti-pY705-STAT3 antibody (STAT3) or […] rabbit monoclonal Anti-pY641-STAT6 antibody (STAT6) in 1% Blocker-A for 1 hour at room temperature with shaking, then washed and probed with 25 ul per well of 1 ug/ml Sulfo-TAG Labeled Goat Anti-Rabbit Antibody (MSD) in 1% Blocker-A for 1 hour at room temperature with shaking. Assay plates were then washed and 150 μL of 1× Read Buffer-T (MSD) was added to each well prior to reading on an SQ120 MSD Plate Reader. Assay signal from each sample was subtracted by the signal from unstimulated control wells and normalized to DMSO control wells. IC50 values were calculated using Graph Pad Prism Dose-Response Nonlinear Regression with variable slope. For both pSTAT3 and pSTAT6 A=≤100 nM; B=>100-1000 nM; C=>1000-3000 nM; and D=>3 μM.

**Q.** `CCCOC(=O)[C@H](C)NP(=O)(Oc1ccccc1)C(F)c1ccc2ccc(C(=O)N[C@H]3CN(C(=O)c4noc5ccc(C)cc45)CC[C@H]4CC[C@@H](C(=O)N5CCOC[C@@H]5c5ccccc5)N4C3=O)cc2c1` (stereo partly drawn) [Compound 412, propyl ((fluoro(7-(((5S,8S,10aR)-3-(5-methylbenzo [d]isoxazole-3-carbonyl)-6-oxo-8-((S)-3-phenyl-morpholine-4-carbonyl)decahydro-pyrrolo [1,2-a][1,5]diazocin-5-yl)carbamoyl)naphthalen-2-yl)methyl) (phenoxy)phosphoryl)-L-alaninate] was tested. Which IC50 did it give?
**A.** The IC50 was 100 to 1000 nM.

**Q.** `CCCOC(=O)[C@H](C)NP(=O)(Oc1ccccc1)C(F)c1ccc2ccc(C(=O)N[C@H]3CN(C(=O)c4noc5ccc(C)cc45)CC[C@H]4CC[C@@H](C(=O)N5CCOC[C@H]5c5ccccc5)N4C3=O)cc2c1` (stereo partly drawn) [Compound 413, propyl ((fluoro(7-(((5S,8S,10aR)-3-(5-methylbenzo [d]isoxazole-3-carbonyl)-6-oxo-8-((R)-3-phenyl-morpholine-4-carbonyl)decahydro-pyrrolo [1,2-a][1,5]diazocin-5-yl)carbamoyl)naphthalen-2-yl)methyl) (phenoxy)phosphoryl)-L-alaninate] was tested. Which IC50 did it give?
**A.** The IC50 was no more than 100 nM.

**Q.** How did the IC50 turn out when `CCCOC(=O)[C@H](C)NP(=O)(Oc1ccccc1)C(F)c1ccc2ccc(C(=O)N[C@H]3CN(C(=O)c4noc5ccc(C)cc45)CC[C@H]4CC[C@@H](C(=O)N5C[C@@H]6C[C@H]5CO6)N4C3=O)cc2c1` (stereo partly drawn) [Compound 414, propyl (((7-(((5S,8S,10aR)-8-((1S,4S)-2-oxa-5-azabicyclo [2.2.1]heptane-5-carbonyl)-3-(5-methylbenzo [d]isoxazole-3-carbonyl)-6-oxodeca-hydropyrrolo [1,2-a][1,5]diazocin-5-yl)carbamoyl)naphthalen-2-yl)fluoromethyl) (phenoxy)phosphoryl)-L-alaninate] was run?
**A.** The IC50 was no more than 100 nM.

**Q.** How did the IC50 turn out when `CCCOC(=O)[C@H](C)NP(=O)(Oc1ccccc1)C(F)c1ccc2ccc(C(=O)N[C@H]3CN(C(=O)c4noc5ccc(C)cc45)CC[C@H]4CC[C@@H](C(=O)N5CCOC(Cc6ccccc6)C5)N4C3=O)cc2c1` (stereo partly drawn) [Compound 415, propyl (((7-(((5S,8S,10aR)-8-(2-benzyl-morpholine-4-carbonyl)-3-(5-methylbenzo [d]isoxazole-3-carbonyl)-6-oxodeca-hydropyrrolo [1,2-a][1,5]diazocin-5-yl)carbamoyl)naphthalen-2-yl)fluoromethyl) (phenoxy)phosphoryl)-L-alaninate] was run?
**A.** The IC50 was 100 to 1000 nM.

**Q.** How did the IC50 turn out when `CCCOC(=O)[C@H](C)NP(=O)(Oc1ccccc1)[C@@H](F)c1ccc2ccc(C(=O)N[C@H]3CN(C(=O)c4noc5ccc(C)cc45)CC[C@H]4CC[C@@H](C(=O)N5CC6CCC(C5)O6)N4C3=O)cc2c1` (stereo partly drawn) [Compound 416, propyl (((1R)-(7-(((5S,8S,10aR)-8-(8-oxa-3-azabicyclo [3.2.1]octane-3-carbonyl)-3-(5-methylbenzo [d]isoxazole-3-carbonyl)-6-oxodeca-hydropyrrolo [1,2-a][1,5]diazocin-5-yl)carbamoyl)naphthalen-2-yl)fluoromethyl) (phenoxy)phosphoryl)-L-alaninate] was run?
**A.** Its IC50 is no more than 100 nM.

**Q.** Which IC50 does the source give for `CCCOC(=O)[C@H](C)NP(=O)(Oc1ccccc1)[C@H](F)c1ccc2ccc(C(=O)N[C@H]3CN(C(=O)c4noc5ccc(C)cc45)CC[C@H]4CC[C@@H](C(=O)N5C[C@@H](c6ccn(C)c(=O)c6)CC56CC6)N4C3=O)cc2c1` (stereo partly drawn) [Compound 417, propyl (((S)-fluoro(7-(((5S,8S,10a R)-8-((R)-6-(1-methyl-2-oxo-1,2-dihydro-pyridin-4-yl)-4-azaspiro[2.4]heptane-4-carbonyl)-3-(5-methylbenzo [d]isoxazole-3-carbonyl)-6-oxodeca-hydropyrrolo [1,2-a][1,5]diazocin-5-yl)carbamoyl)naphthalen-2-yl)methyl) (phenoxy)phosphoryl)-L-alaninate] here?
**A.** Its IC50 is no more than 100 nM.

**Q.** With `CCCOC(=O)[C@H](C)NP(=O)(Oc1ccccc1)[C@@H](F)c1ccc2ccc(C(=O)N[C@H]3CN(C(=O)c4noc5ccc(C)cc45)CC[C@H]4CC[C@@H](C(=O)N5C(=O)N(c6cccnc6)C(=O)C56CC6)N4C3=O)cc2c1` (stereo partly drawn) [Compound 418, propyl (((R)-(7-(((5S,8S,10aR)-8-(5,7-dioxo-6-(pyridin-3-yl)-4,6-diazaspiro [2.4]heptane-4-carbonyl)-3-(5-methylbenzo [d]isoxazole-3-carbonyl)-6-oxodeca-hydropyrrolo [1,2a][1,5]diazocin-5-yl)carbamoyl)naphthalen-2-yl)fluoromethyl) (phenoxy)phosphoryl)-L-alaninate] as the compound, how does the IC50 read?
**A.** Its IC50 is no more than 100 nM.

**Q.** With `CCCOC(=O)[C@H](C)NP(=O)(Oc1ccccc1)[C@H](F)c1ccc2ccc(C(=O)N[C@H]3CN(C(=O)c4noc5ccc(C)cc45)CC[C@H]4CC[C@@H](C(=O)N5C[C@H](c6ccn(C)c(=O)c6)CC56CC6)N4C3=O)cc2c1` (stereo partly drawn) [Compound 419, propyl (((S)-fluoro(7-(((5S,8S,10aR)-8-((S)-6-(1-methyl-2-oxo-1,2-dihydropyridin-4-yl)-4-azaspiro[2.4]heptane-4-carbonyl)-3-(5-methylbenzo [d]isoxazole-3-carbonyl)-6-oxodeca-hydropyrrolo [1,2-a][1,5]diazocin-5-yl)carbamoyl)naphthalen-2-yl)methyl) (phenoxy)phosphoryl)-L-alaninate] as the compound, how does the IC50 read?
**A.** Its IC50 is no more than 100 nM.

**Q.** With `CCCOC(=O)[C@H](C)NP(=O)(Oc1ccccc1)[C@@H](F)c1ccc2ccc(C(=O)N[C@H]3CN(C(=O)c4noc5ccc(C)cc45)CC[C@H]4CC[C@@H](C(=O)N5C[C@@H](c6ccn(C)c(=O)c6)CC56CC6)N4C3=O)cc2c1` (stereo partly drawn) [Compound 420, propyl (((R)-fluoro(7-(((5S,8S,10aR)-8-((R)-6-(1-methyl-2-oxo-1,2-dihydropyridin-4-yl)-4-azaspiro[2.4]heptane-4-carbonyl)-3-(5-methylbenzo [d]isoxazole-3-carbonyl)-6-oxodeca-hydropyrrolo [1,2-a][1,5]diazocin-5-yl)carbamoyl)naphthalen-2-yl)methyl) (phenoxy)phosphoryl)-L-alaninate] as the compound, how does the IC50 read?
**A.** The IC50 was no more than 100 nM.

**Q.** Which IC50 does the source give for `CCCOC(=O)[C@H](C)NP(=O)(Oc1ccccc1)[C@@H](F)c1ccc2ccc(C(=O)N[C@H]3CN(C(=O)c4noc5ccc(C)cc45)CC[C@H]4CC[C@@H](C(=O)N5C[C@H](c6ccn(C)c(=O)c6)CC56CC6)N4C3=O)cc2c1` (stereo partly drawn) [Compound 421, propyl (((R)-fluoro(7-(((5S,8S,10aR)-8-((S)-6-(1-methyl-2-oxo-1,2-dihydropyridin-4-yl)-4-azaspiro [2.4]heptane-4-carbonyl)-3-(5-methylbenzo [d]isoxazole-3-carbonyl)-6-oxodeca-hydropyrrolo [1,2-a] [1,5]diazocin-5-yl)carbamoyl)naphthalen-2-yl)methyl) (phenoxy)phosphoryl)-L-alaninate] here?
**A.** The IC50 was no more than 100 nM.

**Q.** For `CCCOC(=O)[C@H](C)NP(=O)(Oc1ccccc1)C(F)c1ccc2ccc(C(=O)N[C@H]3CCN(C(=O)c4cc(C)cc(Cl)c4)C[C@H]4CC[C@@H](C(=O)N5CCOCC5)N4C3=O)cc2c1` (stereo partly drawn) [Compound 422, propyl (((7-(((5S,8S,10aR)-2-(3-chloro-5-methylbenzoyl)-8-(morpholine-4-carbonyl)-6-oxodeca-hydropyrrolo [1,2-a][1,4]diazocin-5-yl)carbamoyl)naphthalen-2-yl)fluoromethyl) (phenoxy)phosphoryl)-L-alaninate], which IC50 is on record?
**A.** The IC50 was 1000 to 3000 nM.

**Q.** For `CCCOC(=O)[C@H](C)NP(=O)(Oc1ccccc1)C(F)c1ccc2ccc(C(=O)N[C@H]3CN(C(=O)c4ncn5ccccc45)CC[C@H]4CC[C@@H](C(=O)N5CCOCC5)N4C3=O)cc2c1` (stereo partly drawn) [Compound 423, propyl ((fluoro(7-(((5S,8S,10aR)-3-(imidazo[1,5-a]pyridine-1-carbonyl)-8-(morpholine-4-carbonyl)-6-oxodecahydro-pyrrolo [1,2-a][1,5]diazocin-5-yl)carbamoyl)naphthalen-2-yl)methyl) (phenoxy)phosphoryl)-L-alaninate], which IC50 is on record?
**A.** Its IC50 is greater than 3000 nM.

**Q.** `CCCOC(=O)[C@H](C)NP(=O)(Oc1ccccc1)C(F)c1ccc2ccc(C(=O)N[C@H]3CN(C(=O)c4noc5cc(OC)ccc45)CC[C@H]4CC[C@@H](C(=O)N5CCOCC5)N4C3=O)cc2c1` (stereo partly drawn) [Compound 424, propyl ((fluoro(7-(((5S,8S,10aR)-3-(6-methoxybenzo[d]isoxazole-3-carbonyl)-8-(morpholine-4-carbonyl)-6-oxodeca-hydropyrrolo [1,2-a][1,5]diazocin-5-yl)carbamoyl)naphthalen-2-yl)methyl) (phenoxy)phosphoryl)-L-alaninate] was tested. Which IC50 did it give?
**A.** The IC50 was 1000 to 3000 nM.
